Reference: patent US20210386789A1, “Enhancement of Mesenchymal Stem Cell Anti-inflammatory and Regenerative Activity Using mTOR Inhibitors” (BRAIN CANCER RESEARCH INSTITUTE, priority 2020, published 2021)

Tested on: Bone marrow MSCs
Experiment: HGF-1 production by bone marrow MSCs cultured with rapamycin (ELISA)
Assay type: cell-based
Details: bone marrow MSCs (ATCC), 96 well plates, indicated concentrations of rapamycin and time points, ELISA (R&D Systems), FIG. 1
Protocol: Bone marrow MSCs were purchased from American Type Culture Collection (hereinafter, “ATCC”) and grown in DMEM media with 10% fetal calf serum. Cells were allowed to expand to 100% confluence. The media was subsequently washed with phosphate buffered saline (PBS). Cells were plated on 96 well plates and cultured in the presence of the indicated concentrations of rapamycin for the indicated time points. Hepatocyte Growth Factor (HGF-1) expression was assessed using ELISA (R&D Systems).

Compound: CO[C@H]1C[C@@H]2CC[C@@H](C)[C@@](O)(O2)C(=O)C(=O)N2CCCC[C@H]2C(=O)O[C@H]([C@H](C)C[C@@H]2CC[C@@H](O)[C@H](OC)C2)CC(=O)[C@H](C)/C=C(\C)[C@@H](O)[C@@H](OC)C(=O)[C@H](C)C[C@H](C)/C=C/C=C/C=C/1C [rapamycin, Rapamycin]
- Hepatocyte Growth Factor (HGF-1) expression / production: significant increase in production of HGF-1
